Assay results reported in paper PMC12693182, “Synthesis and QSAR Studies of Claramine Derivatives, a New Class of Broad-Spectrum Antimicrobial Agents” (Molecules, 2025).
Converted amounts (≈) assume the structure as drawn. Like-named read-outs stand apart in the source and are kept apart here.

What was measured:
S. intermedius 1051997 = assay: MIC, broth microdilution; assay type: cell-based, Staphylococcus intermedius; settings: for MIC: Staphylococcus intermedius, 1051997, 24 h, 24 h
Method: (§1) Antimicrobial activity of the compounds was studied by determination of minimal inhibitory concentrations (MIC) according to the NCCLS guidelines M7-A2 using the microbroth dilution methods. The bacteria strains were grown on trypticase soy agar (Becton Dickinson) at 37 °C for 24 h. Inocula were prepared in TCE (tryptone 0.1%, […], wt/vol) by ajusting the turbidity at 623 nm to obtain 1–3 10^5 CFU/mL.
(§2) Antimicrobial activities of the compounds were determined by using a broth microdilution method performed in sterile 96-well microplates. All compounds were solubilized in water at a concentration of 10 mM and were transferred to each microplate well in order to obtain a two-fold serial dilution in 100 µL of broth and 100 µL of inoculum containing 2–6 10^5 CFU of each bacterium were added to each well. Some wells were reserved for positive controls and inoculum viability.

[1] = test system: Chinese hamster Ovary cells (CHO-K1); assay: Cytotoxicity assay (WST-1 / Neutral Red); assay type: cell-based; settings: 24-h incubation; for IC50: Cricetulus griseus, 24 h
Method: The cytotoxic activities of compounds were assessed on Chinese hamster Ovary cells (CHO-K1) provided from ATCC-LGC Standards Sarl (Molsheim, France). Cells were maintained in Mc Coy’s 5A (CHO) medium supplemented with 10% bovine calf serum, 2 mM glutamine, and 100 U mL^−1/10 µg mL^−1 penicillin/streptomycin mixtures. For the cytotoxicity experiments, they were seeded in 96-well plates and incubated at 37 °C in humidified atmosphere containing 5% CO2 overnight, then concentrations of compounds were incorporated in triplicate cultures. After a 24-h incubation period at 37 °C, cells were submitted to three successive washes in phosphate buffer saline (PBS) and cell viability was evaluated by two different vital dyes: • i. A first set of cell cultures was incubated in PBS containing 10% WST-1 for 30 min at 37 °C, 5% CO2. Cell viability was evaluated by the assessment of WST-1 absorbance at 450 nm in a microplate spectrophotometer. • ii. A second set of cell cultures was placed into Neutral Red medium (50 μg mL^−1 Neutral Red in complete medium) and incubated for 3 h at 37 °C, 5% CO2. Then the Neutral Red medium was removed and the distaining solution (50% ethanol, 1% acetic acid, 49% distilled water; 50 µL per well) was added into the wells. The plates were shaken for 15–20 min at room temperature in the dark. Cell viability was evaluated by the assessment of absorbance at 540 nm in a microplate spectrophotometer.
Results were expressed as percentages of cell viability about the control (culture medium-only), which corresponded to 100% cell viability. Dose-response curves were calculated by non-linear regression analysis with TableCurve 2D software (V 5.0.1) (Systat Software Inc., San Jose, CA, USA). The Inhibitory Concentration 50% (IC50) was defined as the concentration of compounds that induced a 50% decrease of viable cells.

E. coli ATCC 25922 = assay: MIC, broth microdilution; assay type: cell-based, Escherichia coli; settings: Escherichia coli, ATCC25922, 24 h, ATCC strain
Method: as §1, §2

P. aeruginosa ATCC 27853 = assay: MIC, broth microdilution; assay type: cell-based, Pseudomonas aeruginosa; settings: Pseudomonas aeruginosa, ATCC27853, 24 h, ATCC strain
Method: as §1, §2

P. aeruginosa 1051575 = assay: MIC, broth microdilution; assay type: cell-based, Pseudomonas aeruginosa; settings: for MIC: Pseudomonas aeruginosa, 1051575, 24 h, 24 h
Method: as §1, §2

S. aureus ATCC 25923 = assay: MIC, broth microdilution; assay type: cell-based, Staphylococcus aureus; settings: Staphylococcus aureus, ATCC25923, 24 h, ATCC strain
Method: as §1, §2

S. aureus 340 = assay: MIC, broth microdilution; assay type: cell-based, Staphylococcus aureus; settings: for MIC: Staphylococcus aureus, 340, 24 h
Method: as §1, §2

E. faecalis ATCC29212 = assay: MIC, broth microdilution; assay type: cell-based, Enterococccus faecalis; settings: Enterococcus faecalis, ATCC29212, 24 h, ATCC strain, read-out: MIC E. faecalis 29212
Method: as §1, §2

[2] = test system: Gram-positive and Gram-negative human and veterinary reference strains; assay: MIC against the panel of Gram-positive and Gram-negative reference strains; assay type: cell-based; settings: for MIC: Homo sapiens, 24 h, over several or all of the tested pathogens; for Therapeutic Ratio (TR): IC50 (CHO)/MIC, over several of the tested pathogens
From the text: Typically, cytotoxicity was expressed as the half maximal inhibitory concentration (IC50), defined as the concentration of a compound that decreases cell viability by 50% relative to untreated cells. This parameter provides a quantitative measure of a compound’s toxic potential toward mammalian cells. To facilitate data interpretation, we defined the Therapeutic Ratio (TR) as the ratio of IC50 (µg/mL) to MIC (µg/mL). This dimensionless parameter provides a straightforward measure of antibacterial selectivity, allowing direct comparison of cytotoxicity and antibacterial potency. A high TR value indicates compounds with strong antibacterial activity at concentrations far below their cytotoxic threshold, whereas a TR close to unity reflects poor selectivity and limited therapeutic potential. […] Within the Claramine A series, variations in IC50 strongly impacted TR values (Figure 5).
as §1, §2

E. coli 1956 = assay: MIC, broth microdilution; assay type: cell-based, Escherichia coli; settings: Escherichia coli, 1956, 24 h
Method: as §1, §2

[3] = test system: S. aureus 340 and P. aeruginosa 1051575; assay: MIC against S. aureus and P. aeruginosa strains (Figure 6); assay type: cell-based; settings: range over both strains, C-24 methyl ester series
Method: as §1, §2

Compound	MIC (S. intermedius 1051997) [µg/mL]	IC50 CHO [1] [µg/mL]	IC50 [1] [µg/mL]	MIC (E. coli ATCC 25922) [µg/mL]	MIC (P. aeruginosa ATCC 27853) [µg/mL]	MIC (P. aeruginosa 1051575) [µg/mL]	MIC (S. aureus ATCC 25923) [µg/mL]	MIC (S. aureus 340) [µg/mL]	MIC (E. faecalis ATCC29212) [µg/mL]	MIC [2] [µg/mL]	MIC (E. coli 1956) [µg/mL]	MIC ([2]; read-out: MIC) [µg/mL]	Therapeutic Ratio (TR) [2]	MIC [3] [µg/mL]	Therapeutic Ratio (TR) (S. intermedius 1051997; IC50 (CHO)/MIC, S. intermedius)	Therapeutic Ratio (TR) (P. aeruginosa 1051575; IC50 (CHO)/MIC, P. aeruginosa)	MIC S. aureus 340 (S. aureus 340; 24 h) [µg/mL]
COC(=O)CCC(C)C1CCC2C3C(O)CC4CC(NCCCCCCN)CCC4(C)C3CC(O)C12C (stereo not shown) [Claramine B06]	2 (≈ 3.84 µM)	60 (≈ 115 µM)	> 60	7 (≈ 13.4 µM)	13 (≈ 25 µM)	13 (≈ 25 µM)	3 (≈ 5.76 µM)	3 (≈ 5.76 µM)	7 (≈ 13.4 µM)	0.7 to 30 (≈ 1.34 to 57.6 µM)							
CC(C)OC(=O)CCC(C)C1CCC2C3CCC4CC(NCCCNCCCCN)CCC4(C)C3CC(O)C12C (stereo not shown) [Claramine A03]	4 (≈ 7.12 µM)		73 (≈ 130 µM)	14 (≈ 24.9 µM)	14 (≈ 24.9 µM)	14 (≈ 24.9 µM)	7 (≈ 12.5 µM)	2 (≈ 3.56 µM)	14 (≈ 24.9 µM)		14 (≈ 24.9 µM)	< 15	> 5				
COC(=O)CCC(C)C1CCC2C3C(O)CC4CC(NCCCN5CCN(CCCN)CC5)CCC4(C)C3CC(O)C12C (stereo not shown) [Claramine B07]	4 (≈ 6.61 µM)	80 (≈ 132 µM)	> 60	15 (≈ 24.8 µM)	30 (≈ 49.6 µM)	15 (≈ 24.8 µM)	4 (≈ 6.61 µM)	8 (≈ 13.2 µM)	8 (≈ 13.2 µM)	0.7 to 30 (≈ 1.16 to 49.6 µM)							
COC(=O)CCC(C)C1CCC2C3CCC4CC(NCCCCCN)CCC4(C)C3CC(O)C12C (stereo not shown) [Claramine A12]														6 to 50 (≈ 12.2 to 102 µM)			
COC(=O)CCC(C)C1CCC2C3CCC4CC(NCCNCCNCCNCCNCN)CCC4(C)C3CC(O)C12C (stereo not shown) [Claramine A15]	1 (≈ 1.65 µM)		93 (≈ 153 µM)	8 (≈ 13.2 µM)	8 (≈ 13.2 µM)	8 (≈ 13.2 µM)	4 (≈ 6.59 µM)	6 (≈ 9.89 µM)	16 (≈ 26.4 µM)		14 (≈ 23.1 µM)	< 15	> 5				
COC(=O)CCC(C)C1CCC2C3CCC4CC(NCCCN(C)CCCN)CCC4(C)C3CC(O)C12C (stereo not shown) [Claramine A16]														7 to 14 (≈ 13.1 to 26.2 µM)			
COC(=O)CCC(C)C1CCC2C3CCC4CC(NCCCNCCCN)CCC4(C)C3CCC12C (stereo not shown) [Claramine E09]	0.7 (≈ 1.39 µM)	80 (≈ 159 µM)	> 60	32 (≈ 63.5 µM)	32 (≈ 63.5 µM)		16 (≈ 31.8 µM)	1 (≈ 1.98 µM)	32 (≈ 63.5 µM)	0.7 to 30 (≈ 1.39 to 59.5 µM)	3 (≈ 5.95 µM)				65–114	> 10	0.7 (≈ 1.39 µM)
COC(=O)CCC(C)C1CCC2C3CCC4CC(NCCCNCCCN)CCC4(C)C3CC(O)C12C (stereo not shown) [Claramine A08]	0.4 (≈ 0.77 µM)		21 (≈ 40.4 µM)	3 (≈ 5.77 µM)	3 (≈ 5.77 µM)	3 (≈ 5.77 µM)	2 (≈ 3.85 µM)	3 (≈ 5.77 µM)	3 (≈ 5.77 µM)		13 (≈ 25 µM)	< 15	> 5				
CC(C)OC(=O)CCC(C)C1CCC2C3CCC4CC(NCCCNCCCNCCCN)CCC4(C)C3CC(O)C12C (stereo not shown) [Claramine A02]	2 (≈ 3.31 µM)		51 (≈ 84.3 µM)	8 (≈ 13.2 µM)	8 (≈ 13.2 µM)	8 (≈ 13.2 µM)	4 (≈ 6.61 µM)	2 (≈ 3.31 µM)	8 (≈ 13.2 µM)		15 (≈ 24.8 µM)	< 15	> 5				
